Data set [1] concerns TNF-α production in human monocytes and macrophages. Nature of the data set: Inhibition of TNF-α production in human monocytes and macrophages (L929 cell lytic assay). The conditions noted are these: 5 μg/ml or more of acanthoic acid; silica-stimulated; FIG. 3. In kind it is cell-based. On the procedure:
The monocytes and macrophages obtained in Reference Example 1 (1) were incubated with 0.1 to 100 μg/ml of acanthoic acid for an hour and treated with 100 μg/ml of silica for 48 hours. The culture was centrifuged to obtain supernatant, which was then dialyzed against PBS. The activity of IL-1 in the dialyzate was determined in accordance with the method of Gery described in Cellular Immunology, 64, 293-303(1981) as follows. Human monocytes and macrophages were treated with acanthoic acid in accordance with the same procedures as in Example 1, and the activity of TNF-α was measured by cell lytic assay in accordance with the method of Aggarwal as described in J. Biol. Chem., 260, 2345(1985). TNF-α dependent L929 fibroblasts(ATCC CCLl) were suspended in RPMI 1640 medium containing 5% FBS and added to the wells of 96-well incubation plate in an amount of 3×10^4 cells/well. The plate was incubated at 37° C. for 2 hours to make the cells adhere to the incubation plate. […] Then, 100 μl of 33% acetic acid was added to each of the wells to release the dye, and then the O.D. of sample obtained from each of the wells was determined by using ELISA reader with 570 nm reading filter and 405 nm reference filter. The amount of released dye was calculated from the O.D. value with reference to that of the internal control group, i.e., rHu TNF-α(Genzyme).

Data set [2] has as its system collagen synthesis in rat pulmonary fibroblast. The data set can be described thus: Inhibition of collagen synthesis in rat pulmonary fibroblasts (indirect ELISA). The conditions noted are these: culture of rat pulmonary fibroblast pretreated with acanthoic acid, silica-stimulated; FIG. 7. Format: cell-based. On the procedure:
Fibroblasts were separated from rats by using a modification of the method of Phan, S. H., et al. described in J. Clin. Invest., 76, 241(1985), as follows. A rat was anesthetized with ether and its lungs were isolated on the aseptic worktable. The lungs were cut into small pieces in the size ranging from 2 to 4 mm and suspended in phosphate buffered saline(PBS) containing collagenase and 0.5% trypsin to digest the tissues at 37° C. for 2 hours. The suspension was filtered through sterilized gauze to remove undigested tissues, etc. The separated cells were washed with PBS twice or three times and suspended into RPMI 1640 medium(Gibco, Grand Island, N.Y., U.S.A.) containing 10% fetal bovine serum(FBS, Hyclone, Logan, Utah, U.S.A.). […] For the purpose of confirming the ability of acanthoic acid to suppress the action of IL-1 and TNF-α, its inhibitory effect on the collagen synthesis in rat pulmonary fibroblast and pulmonary tissues was determined. The amount of produced collagen in the culture of rat pulmonary fibroblast was measured by an indirect ELISA method, and that of pulmonary tissue was determined by measuring the concentration of hydroxyproline and calculating the amount of collagen therefrom by using the standard curve of internal control group. […]
On the technique in general: An ELISA detects its analyte on a solid surface through an enzyme-linked reagent.

Another data set deals with rat. To be noted: cited from earlier work.
For data set [3], the system named is prostaglandin E2 (PGE2) synthesis. The conditions noted are these: cited from earlier work.

The values below come from patent US5900434A, “Method for inhibiting the production of interleukin-1 or tumor necrosis factor-α by administering acanthoic acid” (Korea Institute of Science and Technology, priority 1994, dated 1999).

For the compound `C=C[C@@]1(C)CC=C2C(CCC3[C@](C)(C(=O)O)CCC[C@@]23C)C1` (single isomer, unassigned; (-)) [acanthoic acid, (-)-pimara-9(11),15-diene-19-oic acid], in data set [1], the “inhibition of production of TNF-α” value is on record as “at least 90%”. For the same compound, in data set [2], the “amount of synthesized collagen” value is “decreases significantly”. For the same compound, the “minimum lethal dose(MLD)” value in the data set with rat is 1000 mg/kg. The “inhibition of prostaglandin E2 (PGE2) synthesis” value in data set [3] is on record as “inhibit”.
